Literature values in patent US11730774B2, “Bacterial biofilms and cancer” (THE JOHNS HOPKINS UNIVERSITY, priority 2018, dated 2023).

Tested on: bacteria
Details: 6-week-old mice, water containing 500 mg/L cefoxitin for 48 hours; by 24 hours

For `CO[C@@]1(NC(=O)Cc2cccs2)C(=O)N2C(C(=O)O)=C(COC(N)=O)CS[C@@H]21` [Cefoxitin], the “detectable bacteria by culture or 16S rRNA qPCR” value is listed as “absence of detectable bacteria”.
